Experimental data from patent EP0872233A1, “Antiretroviral compositions with improved bioavailability” (JANSSEN PHARMACEUTICA N.V., priority 1997, dated 1998).

Key:
[1] = in vivo
solubility in water = format: physicochemical; settings: room temperature, pH of 6.5, racemic free base
[2] = thermal stability at melt-extrusion temperatures; format: physicochemical; settings: temperatures up to 300°C
Experimental: One of the most important parameters of melt extrusion is the temperature at which the melt-extruder is operating. […] At temperatures lower than 120°C, loviride will not dissolve sufficiently in most water-soluble polymers and the extrudate will not have the required bioavailability. In addition, the process is difficult because of the high viscosity of the mixture. At temperatures of more than 300°C the water-soluble polymer may decompose to an unacceptable level.

[3] = design: AUClast: dose or concentration left out as unconfirmed; settings: for Cmax: human, in vivo, po, 100 mg
Experimental: In this study 12 healthy volunteers in fasting conditions were administered a tablet of example 1 (100 mg loviride). Plasma levels of each of the loviride enantiomers were determined and the following bioavailability data were calculated therefrom.

| half-life [1] | solubility (solubility in water) | thermal stability [2] | AUClast [3] | Cmax [3] [ng/mL] | SMILES |
| --- | --- | --- | --- | --- | --- |
| short | less than 0.1 mg/100ml | thermally very stable | – | – | CC(=O)c1ccc(C)cc1NC(C(N)=O)c1c(Cl)cccc1Cl (racemic) [loviride, (±)-α-[(2-acetyl-5-methylphenyl)amino]-2,6-dichlorobenzeneacetamide] |
| – | – | – | 18,180 ± 7,197 ng.h/ml | 890 ± 292 | CC(=O)c1ccc(C)cc1NC(C(N)=O)c1c(Cl)cccc1Cl (single isomer, unassigned; (+)) [(+)-loviride] |
| – | – | – | 1,347 ± 512 ng.h/ml | 155 ± 66 | CC(=O)c1ccc(C)cc1NC(C(N)=O)c1c(Cl)cccc1Cl (single isomer, unassigned; (-)) [(-)-loviride] |
